Measurements: patent US20170105999A1, “METHOD FOR TREATING DRUG RESISTANT CANCER” (NATIONAL YANG MING UNIVERSITY, priority 2014, published 2017)

Experiments:
H441 [1] = assay: Tumor spheroid (sphere formation) assay; type: cell-based, human; conditions: H441, adenocarcinoma
SK-Hep 1 = assay: Tumor spheroid (sphere formation) assay; type: cell-based; conditions: SK-Hep 1, liver cancer
GBM8401 = assay: Side population analysis by flow cytometry (Hoechst 33342); type: cell-based; conditions: GBM8401, brain cancer
Description: (§1) Single-cell suspensions of cells were detached from dishes with Trypsin-EDTA (Invitrogen) and suspended at 1×10^6 cells/mL in Hank's balanced salt solution ([…]) supplemented with 3% fetal calf serum and 10 mM Hepes. These cells were then incubated at 37° C. for 90 minutes with 20 μg/mL Hoechst 33342 (Sigma Chemical, St. Louis, Mo.). The ABC transporter inhibitor verapamil (Sigma) was added at a final concentration of 50 μM to confirm the gating area on flow cytometry. After 90 minutes incubation with indicated drugs, the cells were centrifuged immediately for 5 minutes at 300 g and 4° C. and resuspended in ice-cold HBSS, The cells were kept on ice to inhibit efflux of the Hoechst dye, and 1 μg/mL propidium iodide (PI, BD) were added to discriminate dead cells. Finally, these cells were filtered through a 40 μm cell strainer (BD) to obtain single-suspension cells. Cell dual-wavelength analysis and purification were performed on a dual-laser FACS Vantage SE (BD). Hoechst 33342 can be excited at 355 nm UV light and emitted blue fluorescence with a 450/20 band-pass (BP) filter and red fluorescence with a 675 nm edge filter long-pass (EFLP). A 610 nm dichroic mirror short-pass (DMSP) was used to separate the emission wavelengths. PI-positive (dead) cells were excluded from the analysis.

U87MG = assay: as above; type: cell-based; conditions: brain cancer
Description: as §1

H441 [2] = assay: Aldefluor assay (ALDH-positive cell population); type: cell-based, human; conditions: H441, adenocarcinoma
Description: Briefly, single cells obtained from cell cultures were incubated in an Aldefluor assay buffer containing an ALDH substrate (bodipy-aminoacetaldehyde, BAAA) for 50 minutes at 37° C.

CL152 spheres = assay: Apoptosis by flow cytometry; type: cell-based; conditions: 48 hours
[3] = tested on: NCI-H441 cells expressing firefly luciferase; assay: NCI-H441 firefly luciferase tail vein tumor model, drug combination test; type: in vivo, mice; conditions: prochlorperazine 1 mg/kg + pemetrexed 1 mg/kg; p<0.05
Description: (§2) In the first drug combination test, NCI-H441 cells expressing firefly luciferase (6×10^5 cells/injection) were injected into NOD/SCID mice (4-6 week of age) via the lateral tail vein for tumor establishment. […] Tumor burden from different groups were recorded by caliper. The change in tumor size was expressed as in fold change and plotted over time. Subsequently, we performed another set of drug combination test. […] For lung adenocarcinoma, the standard drug combination is pemetrexed and cisplatin whereas are used gemcitabine and cisplatin for lung squamous carcinoma. […] CL97 cancer cells (1.5×10^6 cells per injection) were injected subcutaneously into NOD/SCID mice to establish in viva tumor model.
In the drug combination test ([…]), NCI-H441 cells expressing firefly luciferase ([…] cells/injection) were injected into NOD/SCID mice (4-6 week of age) via the lateral tail vein for tumor establishment.

[4] = tested on: CL97 (EGFR T790M and G719A mutations)
Description: as §2

CN1CCN(CCCN2c3ccccc3Sc3ccc(Cl)cc32)CC1 [prochlorperazine]
Sphere formation (H441 [1]): 0 to 2.5 µM
Sphere formation (SK-Hep 1): >5 µM
Side population (GBM8401): >10 µM
Side population (U87MG): >10 µM
ALDH^+ assay (H441 [2]): <10 µM
apoptosis (CL152 spheres): dose-dependent increase in apoptosis
tumor inhibitory effect, combination with pemetrexed [3]: significantly better tumor inhibitory effect than any other groups
tumor growth, combined with gefitinib ([4]; 100 mg/kg gefitinib combined with 5 mg/kg prochlorperazine, p<0.001): significantly inhibitory effects of tumor growth
tumor growth, single agent ([4]; gefitinib 100 mg/kg or prochlorperazine 5 mg/kg alone): significantly inhibitory effects of tumor growth
